Assay results as given in patent US20260262643A1, “HERBICIDAL BENZOXAZINES” (FMC CORPORATION, priority 2022, published 2026).

Legend:
horseweed = assay: Test C postemergence; type: in vivo, Erigeron canadensis; settings: 10 days
Summary of the method: (§1)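 Visual injury ratings on a 0–100 scale (100 = complete control) were made against untreated controls 10 days after treatment in the greenhouse. Compounds, formulated with surfactant in non-phytotoxic solvent, were sprayed on soil preemergence or onto one- to two-leaf plants 2–10 cm tall postemergence.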

barnyardgrass [1] = assay: Test C preemergence; type: in vivo, Echinochloa crusgalli; settings: preemergence, 0 to 100 scale (0 no effect, 100 complete control)
Summary of the method: as §1

galium = assay: Test C postemergence; type: in vivo, Galium aparine; settings: 10 days
Summary of the method: as §1

kochia [2] = assay: Test C preemergence; type: in vivo, Bassia scoparia; settings: preemergence, 0 to 100 scale (0 no effect, 100 complete control)
Summary of the method: as §1

soybean [3] = assay: Test C postemergence; type: in vivo, Glycine max; settings: 10 days
Summary of the method: as §1

green foxtail [4] = assay: Test C preemergence; type: in vivo, Setaria viridis; settings: preemergence, 0 to 100 scale (0 no effect, 100 complete control)
Summary of the method: as §1

wheat [5] = assay: Test C preemergence; type: in vivo, Triticum aestivum; settings: preemergence, 0 to 100 scale (0 no effect, 100 complete control)
Summary of the method: as §1

pigweed, palmer [6] = assay: Test C preemergence; type: in vivo, Amaranthus palmeri; settings: preemergence, 0 to 100 scale (0 no effect, 100 complete control)
Summary of the method: as §1

blackgrass [7] = assay: Test C postemergence; type: in vivo, Alopecurus myosuroides; settings: 10 days
Summary of the method: as §1

pigweed, palmer [8] = assay: Test C postemergence; type: in vivo, Amaranthus palmeri; settings: 10 days
Summary of the method: as §1

ryegrass, Italian [9] = assay: Test C postemergence; type: in vivo, Lolium multiflorum; settings: 10 days
Summary of the method: as §1

ryegrass, Italian [10] = assay: Test C preemergence; type: in vivo, Lolium multiflorum; settings: preemergence, 0 to 100 scale (0 no effect, 100 complete control)
Summary of the method: as §1

wheat [11] = assay: Test C postemergence; type: in vivo, Triticum aestivum; settings: 10 days
Summary of the method: as §1

soybean [12] = assay: Test C preemergence; type: in vivo, Glycine max; settings: preemergence, 0 to 100 scale (0 no effect, 100 complete control)
Summary of the method: as §1

ragweed [13] = assay: Test C postemergence; type: in vivo, Ambrosia artemisiifolia; settings: 10 days
Summary of the method: as §1

kochia [14] = assay: Test C postemergence; type: in vivo, Bassia scoparia; settings: 10 days
Summary of the method: as §1

corn [15] = assay: Test C postemergence; type: in vivo, Zea mays; settings: 10 days
Summary of the method: as §1

green foxtail [16] = assay: Test C postemergence; type: in vivo, Setaria viridis; settings: 10 days, 0 to 100 scale (0 no effect, 100 complete control)
Summary of the method: as §1

barnyardgrass [17] = assay: Test C postemergence; type: in vivo, Echinochloa crusgalli; settings: 10 days
Summary of the method: as §1

ragweed [18] = assay: Test C preemergence; type: in vivo, Ambrosia artemisiifolia; settings: preemergence, 0 to 100 scale (0 no effect, 100 complete control)
Summary of the method: as §1

oat, wild [19] = assay: Test C preemergence; type: in vivo, Avena fatua; settings: preemergence, 0 to 100 scale (0 no effect, 100 complete control)
Summary of the method: as §1

blackgrass [20] = assay: Test C preemergence; type: in vivo, Alopecurus myosuroides; settings: preemergence, 0 to 100 scale (0 no effect, 100 complete control)
Summary of the method: as §1

corn [21] = assay: Test C preemergence; type: in vivo, Zea mays; settings: preemergence, 0 to 100 scale (0 no effect, 100 complete control)
Summary of the method: as §1

oat, wild [22] = assay: Test C postemergence; type: in vivo, Avena fatua; settings: 10 days
Summary of the method: as §1

barnyardgrass [23] = assay: Test D flooded paddy test; type: in vivo, Echinochloa crus-galli; settings: 250 g ai/ha, applied to paddy water, visual rating after 13 to 14 days, scale 0 to 100 (0 no effect, 100 complete control)
Protocol: (§2) Plant species in the flooded paddy test selected from barnyardgrass (Echinochloa crus-galli), ducksalad (Heteranthera limosa), rice (Oryza sativa), and sedge, umbrella (small-flower umbrella sedge, Cyperus difformis) were grown to the 2-leaf stage for testing. At time of treatment, test pots were flooded to 3 cm above the soil surface, treated by application of test compounds directly to the paddy water, and then maintained at that water depth for the duration of the test. Treated plants and controls were maintained in a greenhouse for 13 to 14 days, after which time all species were compared to controls and visually evaluated. Plant response ratings, summarized in Table D, are based on a scale of 0 to 100 where 0 is no effect and 100 is complete control. A dash (-) response means no test result.

sedge, umbrella = assay: Test D flooded paddy test; type: in vivo, Cyperus difformis; settings: 250 g ai/ha, applied to paddy water, visual rating after 13 to 14 days, scale 0 to 100 (0 no effect, 100 complete control)
Protocol: as §2

ducksalad = assay: Test D flooded paddy test; type: in vivo, Heteranthera limosa; settings: 250 g ai/ha, applied to paddy water, visual rating after 13 to 14 days, scale 0 to 100 (0 no effect, 100 complete control)
Protocol: as §2

[24] = 500 g ai/ha, postemergence, 0 to 100 scale (0 no effect, 100 complete control)
[25] = Postemergence, 125 g ai/ha, 0 to 100 scale (0 no effect, 100 complete control)
[26] = 125 g ai/ha, postemergence, 0 to 100 scale, 0 no effect, 100 complete control

CC(C)c1ncn(-c2cc(C(=O)N3C[C@H](C)Oc4c(Cl)cccc43)cnn2)n1 [Compound 305]
Plant response rating, Horseweed (horseweed; [24]): 100 | Plant response rating, Horseweed (horseweed; [25]): 30 | Barnyardgrass plant response rating (barnyardgrass [1]; 500 g ai/ha): 100 | Barnyardgrass plant response rating (barnyardgrass [1]; Test C, 125 g ai/ha): 70 | Plant response rating, Galium (galium; [24]): 100 | Plant response rating, Galium (galium; [25]): 100 | Kochia plant response rating (kochia [2]; 500 g ai/ha): 100 | Kochia plant response rating (kochia [2]; Test C, 125 g ai/ha): 80 | Plant response rating, Soybean (soybean [3]; [24]): 100 | Plant response rating, Soybean (soybean [3]; [25]): 100 | Foxtail, Green plant response rating (green foxtail [4]; 500 g ai/ha): 100 | Foxtail, Green plant response rating (green foxtail [4]; Test C, 125 g ai/ha): 100 | Wheat plant response rating (wheat [5]; 500 g ai/ha): 70 | Wheat plant response rating (wheat [5]; Test C, 125 g ai/ha): 0 | Pigweed, Palmer plant response rating (pigweed, palmer [6]; 500 g ai/ha): 100 | Pigweed, Palmer plant response rating (pigweed, palmer [6]; Test C, 125 g ai/ha): 80 | Plant response rating, Blackgrass (blackgrass [7]; [24]): 90 | Plant response rating, Blackgrass (blackgrass [7]; [25]): 40 | Plant response rating, Pigweed, Palmer (pigweed, palmer [8]; [24]): 80 | Plant response rating, Pigweed, Palmer (pigweed, palmer [8]; [25]): 30 | Plant response rating, Ryegrass, Italian (ryegrass, Italian [9]; [24]): 60 | Plant response rating, Ryegrass, Italian (ryegrass, Italian [9]; [25]): 30 | Ryegrass, Italian plant response rating (ryegrass, Italian [10]; 500 g ai/ha): 90 | Ryegrass, Italian plant response rating (ryegrass, Italian [10]; Test C, 125 g ai/ha): 60 | Plant response rating, Wheat (wheat [11]; [24]): 90 | Plant response rating, Wheat (wheat [11]; [25]): 40 | Soybean plant response rating (soybean [12]; 500 g ai/ha): 90 | Soybean plant response rating (soybean [12]; Test C, 125 g ai/ha): 0 | Plant response rating, Ragweed (ragweed [13]; [24]): 80 | Plant response rating, Ragweed (ragweed [13]; [25]): 70 | Plant response rating, Kochia (kochia [14]; [24]): 80 | Plant response rating, Kochia (kochia [14]; [25]): 50 | Plant response rating, Corn (corn [15]; [24]): 90 | Plant response rating, Corn (corn [15]; [25]): 10 | Plant response rating, Foxtail, Green (green foxtail [16]; 500 g ai/ha, postemergence): 90 | Plant response rating, Foxtail, Green (green foxtail [16]; Postemergence, 125 g ai/ha): 50 | Plant response rating, Barnyardgrass (barnyardgrass [17]; [24]): 90 | Plant response rating, Barnyardgrass (barnyardgrass [17]; [25]): 30 | Ragweed plant response rating (ragweed [18]; 500 g ai/ha): 90 | Ragweed plant response rating (ragweed [18]; Test C, 125 g ai/ha): 70 | Oat, Wild plant response rating (oat, wild [19]; 500 g ai/ha): 80 | Oat, Wild plant response rating (oat, wild [19]; Test C, 125 g ai/ha): 20 | Blackgrass plant response rating (blackgrass [20]; 500 g ai/ha): 90 | Blackgrass plant response rating (blackgrass [20]; Test C, 125 g ai/ha): 50 | Corn plant response rating (corn [21]; 500 g ai/ha): 30 | Corn plant response rating (corn [21]; Test C, 125 g ai/ha): 0 | Plant response rating, Oat, Wild (oat, wild [22]; [24]): 60 | Plant response rating, Oat, Wild (oat, wild [22]; [25]): 30

COC[C@H]1CN(C(=O)c2cc(-n3cnc(C(C)(C)C)n3)ccc2OC)c2cccc(Cl)c2O1 [Compound 230]
Plant response rating, Horseweed (horseweed; [26]): 40 | Barnyardgrass plant response rating (barnyardgrass [1]; Test C, 125 g ai/ha): 60 | Plant response rating, Galium (galium; [26]): 100 | Kochia plant response rating (kochia [2]; Test C, 125 g ai/ha): 0 | Plant response rating, Soybean (soybean [3]; [26]): 100 | Plant response rating, Barnyardgrass (Flood) (barnyardgrass [23]): 15 | Foxtail, Green plant response rating (green foxtail [4]; Test C, 125 g ai/ha): 100 | Wheat plant response rating (wheat [5]; Test C, 125 g ai/ha): 30 | Pigweed, Palmer plant response rating (pigweed, palmer [6]; Test C, 125 g ai/ha): 100 | Plant response rating, Blackgrass (blackgrass [7]; [26]): 40 | Plant response rating, Pigweed, Palmer (pigweed, palmer [8]; [26]): 100 | Plant response rating, Ryegrass, Italian (ryegrass, Italian [9]; [26]): 60 | Ryegrass, Italian plant response rating (ryegrass, Italian [10]; Test C, 125 g ai/ha): 80 | Plant response rating, Wheat (wheat [11]; [26]): 40 | Soybean plant response rating (soybean [12]; Test C, 125 g ai/ha): 90 | Plant response rating, Ragweed (ragweed [13]; [26]): 90 | Plant response rating, Kochia (kochia [14]; [26]): 90 | Plant response rating, Corn (corn [15]; [26]): 60 | Plant response rating, Barnyardgrass (barnyardgrass [17]; [26]): 60 | Ragweed plant response rating (ragweed [18]; Test C, 125 g ai/ha): 60 | Oat, Wild plant response rating (oat, wild [19]; Test C, 125 g ai/ha): 50 | Blackgrass plant response rating (blackgrass [20]; Test C, 125 g ai/ha): 70 | Corn plant response rating (corn [21]; Test C, 125 g ai/ha): 20 | Plant response rating, Oat, Wild (oat, wild [22]; [26]): 20 | Plant response rating, Sedge, Umbrella (Flood) (sedge, umbrella): 98 | Plant response rating, Ducksalad (Flood) (ducksalad): 70
